Data: patent publication EP0278158A2, “Renin inhibitors containing phenylalanyl-histidine replacements” (Merck & Co., Inc., priority 1986, dated 1988)
Non-standard residues stand in square brackets, D forms with d. Residues, ends and D or L forms follow the SMILES beside them. *: point of attachment. Sta = CC(C)C[C@H](N)[C@@H](O)CC(=O)O; Isovaleryl = CC(C)CC(=O)*

Key:
[1] = molecular target: T1, renin (Homo sapiens, UniProt P00797); test: renin inhibition (IC50 printed in the synthesis example, no method described); format: biochemical
T1 sequence (P00797 67-406): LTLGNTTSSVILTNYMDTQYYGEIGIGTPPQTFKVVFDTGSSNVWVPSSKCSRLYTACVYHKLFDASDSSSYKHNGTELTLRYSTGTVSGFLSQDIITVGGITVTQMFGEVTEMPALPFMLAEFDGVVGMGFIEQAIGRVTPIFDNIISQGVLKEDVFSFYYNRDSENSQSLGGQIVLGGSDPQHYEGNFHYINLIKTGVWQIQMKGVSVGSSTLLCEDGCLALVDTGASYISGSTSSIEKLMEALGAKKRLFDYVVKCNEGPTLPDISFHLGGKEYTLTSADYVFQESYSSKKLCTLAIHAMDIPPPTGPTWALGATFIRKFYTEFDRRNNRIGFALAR

[2] = tested on: hog renin; conditions: after the injection of hog renin into nephrectomized rats; Gross et al., Science 175:656, 1972; cited from earlier work

CC(C)S(=O)(=O)C[C@@H](CCc1ccccc1)C(=O)N[C@@H](Cc1cnc[nH]1)C(=O)N[C@@H](CC1CCCCC1)[C@@H](O)CC(=O)NC1CN2CCC1CC2 (stereo partly drawn) [3-benzyl-2-(S)-(isopropylsuffonylmethyl)propionyl-L-histidyl-(3S,4S)-4-amino-5-cyclohexyl 3-hydroxypentanoyl 3-quinuclidinyl amide] showed an IC50 [1] of 11 nM.

For CC(C)CC(=O)N[C@H](C(=O)N[C@H](C(=O)N[C@@H](CC(C)C)[C@@H](O)CC(=O)N[C@@H](C)C(=O)N[C@@H](CC(C)C)[C@@H](O)CC(=O)O)C(C)C)C(C)C [pepstatin] (Isovaleryl-VV[Sta]A[Sta]-OH), the “blood pressure in vivo” value [2] is given as “reduces blood pressure”.
